From ChEMBL document CHEMBL6120946, “From Hit to Lead: Discovery of First-In-Class Furanone Glycoside D228 Derived from Chimonanthus salicifolius for the Treatment of Inflammatory Bowel Disease” (J Med Chem, 2024)
Calls of active or inactive are those of the source. No cut-off for these calls is given here.

Tests used:
Mus musculus [1] = experiment: Antiinflammatory activity in DSS-induced male C57BL/6 mouse model of inflammatory bowel disease assessed as restoration of colon length at 40 mg/kg/day, po via gavage measured after 14 days relative to control; type: functional; settings: time 14 day
[2] = Immunosuppressive activity in mouse T-lymphocyte assessed as reduction in concanavalin A-induced cell proliferation incubated for 48 hrs; type: functional, cell-based
[3] = Cytotoxicity against mouse Splenocyte by MTT assay; type: toxicity, cell-based; settings: splenocytes
B-cell line = experiment: Immunosuppressive activity in mouse B-lymphocyte assessed as reduction in LPS-induced cell proliferation incubated for 48 hrs; type: functional, cell-based
[4] = Selectivity ratio of CC50 for cytotoxicity against mouse Splenocyte to IC50 for immunosuppressive activity in mouse T-lymphocyte; type: toxicity; settings: splenocytes (CC50) and T-lymphocytes (IC50)
Mus musculus [5] = experiment: Antiinflammatory activity in male C57BL/6 mouse model of inflammatory bowel disease assessed as recovery of DSS-induced body weight loss at 40 mg/kg/day, po via gavage measured after 14 days relative to control; type: functional; settings: time 14 day
[6] = Selectivity ratio of CC50 for cytotoxicity against mouse Splenocyte to IC50 for immunosuppressive activity in mouse B-lymphocyte; type: toxicity; settings: splenocytes (CC50) and B-lymphocytes (IC50)
Mus musculus [7] = experiment: Antiinflammatory activity in DSS-induced male C57BL/6 mouse model of inflammatory bowel disease assessed as recovery from body weight loss at 40 mg/kg/day, po measured after 7 days relative to control; type: functional; settings: time 7 day
Mus musculus [8] = experiment: Antiinflammatory activity in DSS-induced male C57BL/6 mouse model of inflammatory bowel disease assessed as recovery in colon length at 40 mg/kg/day, po measured after 7 days relative to control; type: functional; settings: time 7 day
Mus musculus [9] = experiment: Antiinflammatory activity in DSS-induced male C57BL/6 mouse model of inflammatory bowel disease assessed as recovery from body weight loss at 40 mg/kg/day, po measured after 7 days; type: functional, organism-based; settings: time 7.0 day
[10] = Toxicity in female BALB/c mouse assessed as effect on CREA level at 0.5 g/Kg administered daily and measured after 5 weeks; settings: in vivo, 500 mg/kg, 840 h
Mus musculus [11] = experiment: Antiinflammatory activity in DSS-induced male C57BL/6 mouse model of inflammatory bowel disease assessed as decrease in p38 phosphorylation level at 50 to 100 microM/Kg by Western blot analysis; type: functional, organism-based; settings: dose 50-100 µM/Kg
Mus musculus [12] = experiment: Antiinflammatory activity in DSS-induced male C57BL/6 mouse model assessed as inhibition of IL-17A level in colon at 50 to 100 microM/Kg; type: functional, organism-based; settings: dose 50-100 µM/Kg
Mus musculus [13] = experiment: Antiinflammatory activity in DSS-induced male C57BL/6 mouse model of inflammatory bowel disease assessed as inhibition of MPO expression at 50 to 100 microM/Kg, po by immunohistochemical analysis; type: functional, organism-based; settings: dose 50-100 µM/Kg
Mus musculus [14] = experiment: Antiinflammatory activity in DSS-induced male C57BL/6 mouse model of inflammatory bowel disease assessed as amelioration of crypts disruption at 50 to 100 microM/Kg by H and E staining based analysis; type: functional, organism-based; settings: dose 50-100 µM/Kg
[15] = Toxicity in male C57BL/6 mouse assessed as effect on CREA level at 0.5 g/Kg administered daily and measured after 5 weeks; settings: in vivo, 500 mg/kg, 840 h
[16] = Toxicity in female BALB/c mouse assessed as effect on Cl inorganic salt index at 0.5 g/Kg administered daily and measured after 5 weeks; settings: in vivo, 500 mg/kg, 840 h
Mus musculus [17] = experiment: Antiinflammatory activity in DSS-induced male C57BL/6 mouse model of inflammatory bowel disease assessed as amelioration of structural loss of colon at 50 to 100 microM/Kg by H and E staining based analysis; type: functional, organism-based; settings: dose 50-100 µM/Kg
Mus musculus [18] = experiment: Antiinflammatory activity in DSS-induced male C57BL/6 mouse model assessed as effect on JNK phosphorylation level at 50 to 100 microM/Kg by Western blot analysis; type: functional, organism-based; settings: dose 50-100 µM/Kg
[19] = Toxicity in female BALB/c mouse assessed as effect on ALP level at 0.5 g/Kg administered daily and measured after 5 weeks; settings: in vivo, 500 mg/kg, 840 h
[20] = Toxicity in female BALB/c mouse assessed as effect on Na inorganic salt index at 0.5 g/Kg administered daily and measured after 5 weeks; settings: in vivo, 500 mg/kg, 840 h
[21] = Toxicity in female BALB/c mouse assessed as effect on GLU level at 0.5 g/Kg administered daily and measured after 5 weeks; settings: in vivo, 500 mg/kg, 840 h
Mus musculus [22] = experiment: Antiinflammatory activity in DSS-induced male C57BL/6 mouse model assessed as inhibition of TNF-alpha level in colon at 50 to 100 microM/Kg; type: functional, organism-based; settings: dose 50-100 µM/Kg
Mus musculus [23] = experiment: Antiinflammatory activity in DSS-induced male C57BL/6 mouse model assessed as increase in IL-10 level in colon at 50 to 100 microM/Kg; type: functional, organism-based; settings: dose 50-100 µM/Kg
[24] = Toxicity in male C57BL/6 mouse assessed as effect on Cl inorganic salt index at 0.5 g/Kg administered daily and measured after 5 weeks; settings: in vivo, 500 mg/kg, 840 h
Mus musculus [25] = experiment: Antiinflammatory activity in DSS-induced male C57BL/6 mouse model of inflammatory bowel disease assessed as upregulation of ZO-1 expression in colon at 50 to 100 microM/Kg by immunohistochemical analysis; type: functional, organism-based; settings: dose 50-100 µM/Kg
[26] = Toxicity in male C57BL/6 mouse assessed as effect on Na inorganic salt index at 0.5 g/Kg administered daily and measured after 5 weeks; settings: in vivo, 500 mg/kg, 840 h
[27] = Toxicity in male C57BL/6 mouse assessed as effect on ALP level at 0.5 g/Kg administered daily and measured after 5 weeks; settings: in vivo, 500 mg/kg, 840 h
[28] = Toxicity in female BALB/c mouse assessed as effect on CK level at 0.5 g/Kg administered daily and measured after 5 weeks; settings: in vivo, 500 mg/kg, 840 h
[29] = Toxicity in male C57BL/6 mouse assessed as effect on CK level at 0.5 g/Kg administered daily and measured after 5 weeks; settings: in vivo, 500 mg/kg, 840 h
Mus musculus [30] = experiment: Antiinflammatory activity in DSS-induced male C57BL/6 mouse model assessed as inhibition of IL-22 level in colon at 50 to 100 microM/Kg; type: functional, organism-based; settings: dose 50-100 µM/Kg
[31] = Toxicity in male C57BL/6 mouse assessed as effect on GLU level at 0.5 g/Kg administered daily and measured after 5 weeks; settings: in vivo, 500 mg/kg, 840 h
Mus musculus [32] = experiment: Antiinflammatory activity in DSS-induced male C57BL/6 mouse model of inflammatory bowel disease assessed as downregulation of TRAF6 expression at 50 to 100 microM/Kg by Western blot analysis; type: functional, organism-based; settings: dose 50-100 µM/Kg
Mus musculus [33] = experiment: Antiinflammatory activity in DSS-induced male C57BL/6 mouse model of inflammatory bowel disease assessed as amelioration of infiltration of inflammatory cells at 50 to 100 microM/Kg by H and E staining based analysis; type: functional, organism-based; settings: dose 50-100 µM/Kg
Mus musculus [34] = experiment: Antiinflammatory activity in DSS-induced male C57BL/6 mouse model of inflammatory bowel disease assessed as downregulation of MyD88 expression at 50 to 100 microM/Kg by Western blot analysis; type: functional, organism-based; settings: dose 50-100 µM/Kg
Mus musculus [35] = experiment: Antiinflammatory activity in DSS-induced male C57BL/6 mouse model assessed as inhibition of IL-6 level in colon at 50 to 100 microM/Kg; type: functional, organism-based; settings: dose 50-100 µM/Kg

## CC(=O)OC[C@H]1O[C@@H](OC2=C(C)OC(=C(C)C)C2=O)[C@H](OC(C)=O)[C@@H](OC(C)=O)[C@H]1OC(C)=O
Mus musculus [1]
  Activity: 25.4%
[2]
  IC50: 201 µM
[3]
  CC50: 183 µM
B-cell line
  IC50: > 100 µM
[4]
  selectivity ratio: 1.06
Mus musculus [5]
  Activity: 44.8%

## CC(=O)OC[C@H]1O[C@@H](OC2=C(C)OC(=C3CCOCC3)C2=O)[C@H](OC(C)=O)[C@@H](OC(C)=O)[C@@H]1OC(C)=O
[6]
  selectivity ratio: 3.11
[2]
  IC50: 43.6 µM
Mus musculus [7]
  Activity: 26.3%
[3]
  CC50: 71.9 µM
B-cell line
  IC50: 26.4 µM
Mus musculus [8]
  Activity: 30.5%
[4]
  selectivity ratio: 1.87
Mus musculus [9]
  Activity: Active

## CC(=O)OC[C@H]1O[C@@H](OC2=C(C)OC(=C3CCNCC3)C2=O)[C@H](OC(C)=O)[C@@H](OC(C)=O)[C@@H]1OC(C)=O
[6]
  selectivity ratio: 0.37
[2]
  IC50: 29.1 µM
Mus musculus [7]
  Activity: 28%
[3]
  CC50: 15.5 µM
B-cell line
  IC50: 41.1 µM
Mus musculus [8]
  Activity: 52.9%
[4]
  selectivity ratio: 0.8
Mus musculus [9]
  Activity: Active

## CC(C)=C1OC(C)=C(O)C1=O
[10]
  Activity: Non-toxic
Mus musculus [11]
  Activity: Active
[6]
  selectivity ratio: 4.77
Mus musculus [12]
  Activity: Active
Mus musculus [13]
  Activity: Active
[2]
  IC50: 62.1 µM
Mus musculus [14]
  Activity: Active
[15]
  Activity: Non-toxic
[16]
  Activity: Non-toxic
Mus musculus [17]
  Activity: Active
Mus musculus [18]
  Activity: inactive
[19]
  Activity: Non-toxic
[20]
  Activity: Non-toxic
[3]
  CC50: 110 µM
[21]
  Activity: Non-toxic
Mus musculus [22]
  Activity: Active
Mus musculus [23]
  Activity: Active
[24]
  Activity: Non-toxic
B-cell line
  IC50: 23.1 µM
Mus musculus [25]
  Activity: Active
[26]
  Activity: Non-toxic
[27]
  Activity: Non-toxic
[28]
  Activity: Non-toxic
[4]
  selectivity ratio: 1.82
[29]
  Activity: Non-toxic
Mus musculus [30]
  Activity: Active
[31]
  Activity: Non-toxic
Mus musculus [32]
  Activity: Active
Mus musculus [33]
  Activity: Active
Mus musculus [34]
  Activity: Active
Mus musculus [35]
  Activity: Active

## CC(=O)OC[C@H]1O[C@@H](OC2=C(C)OC(=C3CCCC3)C2=O)[C@H](OC(C)=O)[C@@H](OC(C)=O)[C@@H]1OC(C)=O
[6]
  selectivity ratio: 2.73
[2]
  IC50: 23.4 µM
Mus musculus [7]
  Activity: 62.5%
[3]
  CC50: 40 µM
B-cell line
  IC50: 16.3 µM
Mus musculus [8]
  Activity: 45.2%
[4]
  selectivity ratio: 1.83
Mus musculus [9]
  Activity: Active

## CC(=O)OC[C@H]1O[C@@H](OC2=C(C)OC(=C3CCN(C(C)=O)CC3)C2=O)[C@H](OC(C)=O)[C@@H](OC(C)=O)[C@@H]1OC(C)=O
[6]
  selectivity ratio: 1.74
[2]
  IC50: 48.3 µM
Mus musculus [7]
  Activity: 13.9%
[3]
  CC50: 38.7 µM
B-cell line
  IC50: 24.9 µM
Mus musculus [8]
  Activity: 26.7%
[4]
  selectivity ratio: 1.23
Mus musculus [9]
  Activity: Active

## CC1=C(O)C(=O)C(=C2CCCCC2)O1
[2]
  IC50: > 100 µM
B-cell line
  IC50: > 100 µM

## CC1=C(O)C(=O)C(=C2CCNCC2)O1
[2]
  IC50: > 100 µM
[3]
  CC50: 205 µM
B-cell line
  IC50: > 100 µM
